Test results published in PubChem BioAssay AID1645864 (Buhrlage Lab, Dana-Farber Cancer Institute and Novartis …, 2021).
Activity calls are given as the source filed them.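 Rule for the calls: active = maximal inhibition of USP17 at or above 30% in the confirmation dose-response, a value not among the printed readouts; inactive = the rest.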

Target: Ubiquitin carboxyl-terminal hydrolase 17-like protein 5 (Homo sapiens) (UniProt A8MUK1)
Assay: ubiquitin-specific protease 17 inhibitors, concentration series, biochemical, verification of primary actives (AID 1645864)
Settings: purified USP17, ubiquitin-rhodamine cleavage fluorescence, 3 h

Ubiquitin carboxyl-terminal hydrolase 17-like protein 5 (Homo sapiens), sequence (A8MUK1 whole entry, looked up): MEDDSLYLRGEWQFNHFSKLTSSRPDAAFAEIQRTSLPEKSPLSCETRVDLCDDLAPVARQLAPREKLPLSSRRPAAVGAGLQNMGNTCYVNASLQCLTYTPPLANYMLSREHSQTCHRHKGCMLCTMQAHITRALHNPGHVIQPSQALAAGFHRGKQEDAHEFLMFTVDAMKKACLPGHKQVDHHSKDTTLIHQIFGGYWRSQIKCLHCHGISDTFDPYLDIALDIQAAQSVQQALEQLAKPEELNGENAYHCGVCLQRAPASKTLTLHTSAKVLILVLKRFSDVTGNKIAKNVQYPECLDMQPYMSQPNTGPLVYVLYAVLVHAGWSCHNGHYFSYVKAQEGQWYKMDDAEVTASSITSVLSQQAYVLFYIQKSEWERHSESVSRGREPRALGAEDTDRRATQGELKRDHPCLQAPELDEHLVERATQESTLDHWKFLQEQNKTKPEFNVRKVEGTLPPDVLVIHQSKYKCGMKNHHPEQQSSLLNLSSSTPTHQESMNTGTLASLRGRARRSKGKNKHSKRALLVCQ

Compound	IC50
COc1ccc(Nc2nc3c(S(=O)(=O)c4ccc(C)cc4)nnn3c3ccsc23)c(OC)c1	2.62 µM
COc1cccc(N2C(=O)N(CC(=O)NCc3ccc(Cl)cc3)c3ccccc3S2(=O)=O)c1	19.1 µM
Cc1cc(C)c2nc3c(cc2c1)CN(Cc1ccco1)C(=O)O3	> 50 µM (inactive)
O=C(O)CCCCCN1C(=O)CC(c2ccc(Cl)cc2)CC1=O	18.2 µM
CCOC(=O)c1ccc(-n2c(=O)c(C#N)cc3c(=O)n4ccccc4nc32)cc1	> 50 µM (inactive)
O=c1oc2ccccc2c2nn(-c3ccccn3)cc12	47.9 µM
O=C(CNc1ccc(F)c(Cl)c1)Nc1ccc2c(c1)OCCO2	> 50 µM (inactive)
Cc1ccc(-c2nc(Cn3cnc4ccccc4c3=O)cs2)cc1	7.32 µM
CC1CS(=O)(=O)N(c2ccc(C(=O)Nc3ccc4c(c3)OCCO4)cc2)C1=O (stereo not given)	35.6 µM
COc1ccc(C(=O)Nc2sc3c(c2C(=O)NCc2cccnc2)CCCC3)cc1	6.19 µM
CC(C)c1ccc(C(C(=O)NC2CCCCC2)N(C(=O)c2cnccn2)c2cccc(F)c2)cc1 (stereo not given)	27.2 µM
O=C(Nc1cc(F)c2nc(N3CCOCC3)ccc2c1)C1CC1	7.47 µM
O=C(CCCCn1c(=O)c2ccccc2n(CC(=O)Nc2ccc(F)c(Cl)c2)c1=O)NCc1ccco1	> 50 µM (inactive)
Cc1ccc(-c2nc(NC(=O)COc3ccc(Cl)cc3)no2)cc1	1.33 µM
Cc1ccc(NC2=NC(c3ccco3)n3c(nc(C)cc3=O)N2)c(C)c1 (stereo not given)	4.62 µM
Cc1cc(C)n(-c2cccc(C(=O)Nc3ccc4c(c3)CCN4S(C)(=O)=O)c2)n1	> 50 µM (inactive)
CC1=C(C)C(c2c(-c3ccc(C)cc3)[nH]c3ccccc23)N(C(C)(C)C)C1=O (stereo not given)	2.05 µM
O=C(Nc1nnc2n1CCCS2)c1cccc(Cl)c1	> 50 µM (inactive)
O=C(Cn1cnc2c(oc3ccccc32)c1=O)NCc1ccccc1Cl	14.5 µM
Cc1ccc(C)c(-c2cc3c(=O)n(Cc4noc(CN5CCCCC5)n4)ccn3n2)c1	> 50 µM (inactive)
CC(C)CCN1C(=O)C2C(C(=O)Nc3ccc(Oc4ccccc4)cc3)C3C=CC2(O3)C1C(=O)NC1CCCCC1 (stereo not given)	34 µM
COc1cccc(-c2nc(C(N)=O)c3[nH]c(=O)n(-c4cccc(Cl)c4)c3n2)c1OC	> 50 µM (inactive)
CSc1ccccc1NC(=O)c1ccc(-n2cccn2)nn1	4.43 µM
CNC(=O)c1cc2nc(N(C)C)n(-c3ccccc3)c2s1	> 50 µM (inactive)
COc1ccc(NC2c3ccccc3C(=O)N2c2ccccn2)cc1 (stereo not given)	> 50 µM (inactive)

Compound	IC50
COc1cccc(NC(=O)c2ccc(F)cc2Cl)c1	> 50 µM (inactive)
Cc1ccc(C)c(-n2c(C)cc(/C=C3/C(=N)N4C(c5ccc(F)cc5)=CSC4=NC3=O)c2C)c1	> 50 µM (inactive)
CN(C)C1CCN(C(=O)c2cc(-c3ccn(-c4ccccc4)n3)n3ccccc23)CC1	> 50 µM (inactive)
CCc1nc2cc(NC(=O)c3cccc(N4CCCC4=O)c3)ccc2n1C	> 50 µM (inactive)
CC1(O)CC(=O)c2c(cc3cc(O)cc(O)c3c2O)C1 (stereo not given)	0.115 µM
Fc1ccc(Nc2nc(Nc3cccc(F)c3)nc3nccnc23)cc1	> 50 µM (inactive)
O=C(Nc1cccc(OC(=O)c2ccc(Cl)cc2)c1)c1ccc(Cl)cc1	16.8 µM
Cc1cc(SCc2ncon2)c(C)cc1Cl	> 50 µM (inactive)
COc1cc(OC)cc(-n2c(=O)c3sccc3n(CC(=O)c3ccc(F)cc3)c2=O)c1	26.1 µM
Cc1ccc2c(c1)[C@]1(C(=O)N2)[C@@H](C(=O)c2ccccc2)[C@]2(C(=O)Nc3ccccc32)[C@@H]2CCCN21	32 µM
c1ccc(-c2nc(-c3nnn(-c4ccccc4)c3-c3ccncc3)no2)cc1	3.91 µM
O=C(Oc1ccc(-c2cnc3ccccc3n2)cc1)c1ccc(F)cc1	6.4 µM
Cc1c(CC(=O)N2CCN(c3ncccn3)CC2)c(=O)oc2cc(O)ccc12	24.7 µM
Cc1ccc(CSC2=NS(=O)(=O)c3ccccc3N2)cc1	> 50 µM (inactive)
CN1C(=O)COc2cc(-c3noc(C(=O)NC4CCCCCC4)n3)ccc21	39.3 µM
C=C1CCC2[C@](C)(CCC[C@]2(C)C(=O)OC)[C@H]1CCc1ccoc1/C=C/C(=O)O (stereo not given in full)	32.5 µM
COc1ccc(-n2nnc3c(SCC(=O)Nc4cc(C)on4)ncnc32)cc1	> 50 µM (inactive)
CC(C)NS(=O)(=O)c1cccc2c(NC(=O)C(Cc3ccccc3)NC(=O)c3ccccc3)cccc12 (stereo not given)	> 50 µM (inactive)
O=C(Nc1cc(-c2cccnc2)no1)c1ccc(F)c(F)c1	19.3 µM
COC(=O)c1ccc(Cn2cnc3ccc(Br)cc3c2=O)o1	> 50 µM (inactive)
Cc1cc(O)c2c3c(c(O)c4c(c13)O[C@@H](C)C4(C)C)C(=O)C2=O	24.5 µM
CCOc1ccc(NC(=O)Cn2c(=O)n(CCC(=O)NCc3ccco3)c(=O)c3ccccc32)cc1	5.43 µM
O=c1c2ccccc2ncn1C1CCN(S(=O)(=O)c2ccccc2F)CC1	28.9 µM
O=C(COc1cccc2ccc(N3CCC(Cc4ccccc4)CC3)nc12)NCc1ccc(F)cc1	21.1 µM
COc1cccc(C(=O)NCC(=O)Nc2nc3ccccc3[nH]2)c1	38.6 µM
